In US7741521B2, “Inhibition of bid-induced cell-death using small organic molecules” (The Burnham Institute, priority 2004, dated 2010):

Tests used:
[1] = test system: primary hippocampal neurons; experiment: Glutamate-induced cell death in primary hippocampal neurons; format: cell-based
Experimental: Primary cultures were obtained from embryonic day 18 rats and cultured in Neurobasal medium (Invitrogen, Karlsruhe, Germany) supplemented with 5 mM HEPES, 1.2 mM glutamine, B27 supplement (Invitrogen, 20 ml/l) and gentamicin (0.1 mg/ml) as described in the art. Glutamate (20 μM) was added in 9-10 day old cultures in EBSS medium (6800 mg/L NaCl, 400 mg/L KCl, 264 mg/L CaCl2×2H2O, 200 mg/L MgCl2×7H2O, 2200 mg/L NaHCO3, 140 mg/L NaH2PO4×H2O, 10 mM glucose, pH 7.2).
Neuronal cell death was quantified after staining the nuclei with the DNA-binding fluorochrome Hoechst 33258 (Molecular Probes) or by the MTT assay. Immunocytochemistry was performed as described in the art, with a polyclonal anti-AIF antibody (sc-9416, Santa Cruz; 1:200) followed by incubation a biotinylated anti-goat IgG antibody (1:200) Vector Laboratories) and Oregon Green-streptavidin (Molecular Probes). […]
To assess whether the compounds of the present invention would also prevent neuronal cell death in primary cultures, a number of cell-based assays were performed. […] Twenty-four hours later, apoptotic nuclei were quantified after staining with Hoechst 33342. In a separate experiment (FIG. 11C), the protective effect of Compound I against glutamate-induced cell death was quantified by the MTT assay. […]

[2] = test system: rat embryonic cortical neurons; experiment: Nuclear translocation of AIF in neurons exposed to glutamate; format: cell-based; details: glutamate 20 μM, 8 h
Experimental: Neuronal cell death was quantified after staining the nuclei with the DNA-binding fluorochrome Hoechst 33258 (Molecular Probes) or by the MTT assay. Immunocytochemistry was performed as described in the art, with a polyclonal anti-AIF antibody (sc-9416, Santa Cruz; 1:200) followed by incubation a biotinylated anti-goat IgG antibody (1:200) Vector Laboratories) and Oregon Green-streptavidin (Molecular Probes). After counterstaining with Hoechst 33342 images were acquired using a confocal laser scanning microscope (Axiovert, Zeiss) with a 60× oil immersion objective (514-nm excitation and 535-nm emission for detection of Oregon Green and 352-nm excitation and 460-nm emission for detection of Hoechst 33342).
Pretreatment with Compound I preserves nuclear morphology (blue fluorescence, Hoechst 33342) and prevents AIF translocation. […] Mean values and SD of 4 dishes per group are presented.

tBID = biological target: T1, tBID (Mus musculus, UniProt P70444); experiment: tBID association with isolated mitochondria (immunoblot with BID antibody); format: biochemical; details: at 20 μM
T1 construct: tBID was produced by cleavage of purified BID with caspase-8, as known in the art; made in house; host or cells: E. coli BL21 (BID), then cleaved in vitro with caspase-8
T1 sequence (P70444 60-195 limits assumed): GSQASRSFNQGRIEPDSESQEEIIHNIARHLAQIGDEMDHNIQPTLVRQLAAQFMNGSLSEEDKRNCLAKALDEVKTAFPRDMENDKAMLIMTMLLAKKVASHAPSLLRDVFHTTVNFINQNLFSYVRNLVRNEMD
T1 sequence (P70444 1-59 partner limits assumed): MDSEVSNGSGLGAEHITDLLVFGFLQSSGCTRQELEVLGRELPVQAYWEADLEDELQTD
Experimental: Compounds II-IX were tested in vitro for their ability to inhibit BID-mediated release of Smac using mitochondria isolated from HeLa cells (FIG. 6A). The first lane represents mitochondria incubated without tBID. All others received 100 ng tBID without or with compounds. Each compound was tested at a concentration of 50 μM. […] To preliminarily investigate the mechanism by which compound II reduces Smac-release from isolated mitochondria, the tBID protein was treated with different concentrations of BI-6C9, after which it was incubated with mitochondria, followed by analysis of the bound and unbound fractions by immunoblotting using BID antibody. The concentration of mitochondria-bound tBID diminished in response to increasing concentrations of compound II.

caspase-3 = biological target: T2, caspase-3 (Homo sapiens, UniProt P42574); experiment: Caspase-3 in vitro assay; format: biochemical; details: concentrations used in the cellular assay
T2 sequence (P42574 29-175 limits assumed): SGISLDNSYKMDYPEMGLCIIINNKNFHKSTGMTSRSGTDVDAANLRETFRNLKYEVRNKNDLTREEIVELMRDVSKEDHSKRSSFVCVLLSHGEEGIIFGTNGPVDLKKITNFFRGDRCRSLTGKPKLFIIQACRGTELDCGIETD
T2 sequence (P42574 176-277 limits assumed): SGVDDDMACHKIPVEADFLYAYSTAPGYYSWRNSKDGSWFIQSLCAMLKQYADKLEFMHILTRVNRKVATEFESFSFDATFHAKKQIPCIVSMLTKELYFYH

[3] = test system: HeLa cells transfected with a plasmid encoding tBID; experiment: Effector caspase activity in lysates of tBID-transfected cells; format: cell-based
Experimental: (§1) HEK 293T cells were transfected with 0.5 μg of plasmids encoding either GFP or GFP-tBID in 12 wells plate. After 3 hours transfection, various compounds were added in DMSO to the media. After 20 hours of further incubation, cells were collected and either lysed for caspase assays or fixed and stained with DAPI for determination of apoptosis^50. For caspase activity assays, 293T cells were lysed in lysis buffer (10 mM Hepes, pH 7.4, 142.2 mM KCl, 5 mM MgCl2, 0.5 mM EDTD, 0.5% NP-40) containing a protease inhibitor mixture (Roche Molecular Biochemicals). The lysates were normalized for protein concentration (10 μg), then incubated with 100 μM DEVD-AFC. Enzyme activity was determined by the release of AFC-fluorescence and Vmax was calculated (mean±Std. dev; n=3). For DAPI staining, 293T cells were fixed, washed with PBS, and stained with 0.1 mg/ml DAPI. The percentage of GFP-positive cells with apoptotic morphology (fragment nuclei or condensed chromatin) was determined (mean±Std. dev; n=3).
(§2) Compound II was also evaluated for its ability to inhibit BID-induced apoptosis in cell; for these experiments, HeLa cells were transfected with a plasmid encoding tBID, and effector caspase activity was measured in cell lysates 24 hours later. […] Moreover, tBID-induced cell death, as measured by caspase-3 activity, was reduced from 80±5% to 35±5% by 50 µM of compound II (FIG. 6E). […]

caspase-8 = caspase-8 (Homo sapiens, UniProt Q14790); experiment: Caspase-8 mediated BID cleavage (SDS page); format: biochemical; details: concentrations used in the cellular assay
Sequence of caspase-8 (Q14790 217-374 limits assumed, species assumed): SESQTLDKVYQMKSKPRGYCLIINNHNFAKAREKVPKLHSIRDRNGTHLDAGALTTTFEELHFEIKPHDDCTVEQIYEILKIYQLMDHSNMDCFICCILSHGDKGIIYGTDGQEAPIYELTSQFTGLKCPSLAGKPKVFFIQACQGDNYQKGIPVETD
Sequence of caspase-8 (Q14790 385-479 limits assumed, species assumed): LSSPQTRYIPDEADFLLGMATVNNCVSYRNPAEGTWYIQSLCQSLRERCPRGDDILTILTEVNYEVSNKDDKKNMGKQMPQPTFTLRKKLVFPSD

[4] = test system: HeLa cells transfected with a plasmid encoding tBID; experiment: tBID-induced cell death in transfected cells; format: cell-based; details: 50 µM; without compound 80±5%
Experimental: as §1, §2

Nc1ccc(Sc2ccc(NC(=O)CNC(=O)c3ccc(O)cc3O)cc2)cc1 [Compound I, N-((4-(4-aminophenylthio)phenylcarbamoyl)methyl)-2,4-dihydroxybenzamide]
concentration range of dose-dependent neuroprotective effect ([1]; 1 hour pretreatment, glutamate 20 μM, 24 hours, Hoechst 33342 apoptotic nuclei): 0.2 to 2 µM
toxicity to primary hippocampal neurons ([1]; at higher concentrations (20 μM)): some toxicity
nuclear translocation of AIF [2]: prevented

COc1ccc(S(=O)(=O)NCCCC(=O)Nc2ccc(Sc3ccc(N)cc3)cc2)cc1 [Compound II, N-[4-(4-amino-phenylsulfanyl)-phenyl]-4-(4-methoxy-benzenesulfonylamino)-butyramide]
inhibition of tBID association with isolated mitochondria (tBID): effective
inhibition of caspase-3 (caspase-3): does not inhibit
reduction of caspase-3 activity in tBID-transfected cells ([3]; 50 µM, 24 hours after transfection): ~4 fold
caspase activity in tBID-transfected cells ([3]; 100 µM): totally blocked
effect on caspase-8 mediated BID cleavage (caspase-8): does not impair
tBID-induced cell death [4]: 35±5%
